Assay results reported in the supplement of paper PMC7840683.

Test system: HepaRG
Experiment: LDH release cytotoxicity, % of total lysis control; higher = more cytotoxic
Settings: 48 h
Method in brief: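 Single-lot HepaRG cells on collagen I-coated 96-well plates were exposed for 48 h in duplicate, in serum-free induction medium with 0.5% DMSO, to eight-point half-log series (test chemicals top 100 µM). Total lysis wells received 0.1% Triton X, and LDH leakage into 50 µL spent medium was read as resorufin fluorescence (CytoTox-ONE, Tecan Safire). Percent cytotoxicity was normalized to on-plate vehicle and total lysis controls and averaged over the duplicates.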

NC(=O)N(O)C1C=CC(Oc2cccc(Oc3ccc(F)cc3)c2)C1 (configuration not stated)
Settings | LDH release cytotoxicity [%]
0.03162 µM | -0.313
0.1 µM | -0.862
0.3162278 µM | -1.12
1 µM | -0.265
3.16228 µM | -0.557
10 µM | -1.09
31.6228 µM | 1.56
100 µM | 19.5

O=C(OCCCCCCOC(=O)c1ccccc1)c1ccccc1 [Hexane-1,6-diyl dibenzoate]
Settings | LDH release cytotoxicity [%]
0.03162 µM | -2.1
0.1 µM | -1.87
0.3162278 µM | -2.22
1 µM | -2.77
3.16228 µM | -2.28
10 µM | -1.66
31.6228 µM | -1.98
100 µM | -0.594

CC(=O)CC(c1ccccc1)C1C(=O)Oc2ccccc2C1=O (configuration not stated) [Warfarin]
Settings | LDH release cytotoxicity [%]
0.03162 µM | -1.66
0.1 µM | -1.26
0.3162278 µM | -0.808
1 µM | -0.262
3.16228 µM | -0.866
10 µM | -0.731
31.6228 µM | 0.385
100 µM | 2.56

CC12C=CC(=O)C=C1CCC1C3CC(O)C(O)(C(=O)CO)C3(C)CC(O)C12F (configuration not stated) [Triamcinolone]
Settings | LDH release cytotoxicity [%]
0.03162 µM | -1.85
0.1 µM | -0.492
0.3162278 µM | -1.39
1 µM | -1.34
3.16228 µM | -0.853
10 µM | -0.509
31.6228 µM | -0.546
100 µM | 2.9

CC(=O)C1C(=O)C=C(C)OC1=O (configuration not stated) [Sodium dehydroacetate]
Settings | LDH release cytotoxicity [%]
0.03162 µM | -0.267
0.1 µM | -1.4
0.3162278 µM | -2.06
1 µM | -1.85
3.16228 µM | -2.36
10 µM | -1.16
31.6228 µM | -0.728
100 µM | 0.541

CC[C@H](C)C1O[C@]2(C=C[C@@H]1C)C[C@@H]1C[C@@H](C/C=C(\C)[C@@H](O[C@H]3C[C@H](OC)[C@@H](O[C@H]4C[C@H](OC)[C@H](NC)[C@H](C)O4)[C@H](C)O3)[C@@H](C)/C=C/C=C3\CO[C@@H]4[C@H](O)C(C)=C[C@@H](C(=O)O1)[C@]34O)O2 (some centres not stated) [Emamectin benzoate]
Settings | LDH release cytotoxicity [%]
0.031623 µM | -1.83
0.1 µM | -1.09
0.316228 µM | -2.57
1 µM | -3.84
3.16228 µM | -2.51
10 µM | 5.16
31.6228 µM | 83.4
100 µM | 87

CCOCCOC(C)=O [Ethylene glycol monoethyl ether acetate]
Settings | LDH release cytotoxicity [%]
0.03162 µM | -1.19
0.1 µM | -0.486
0.3162278 µM | 0.156
1 µM | 0.488
3.16228 µM | 0.0494
10 µM | 0.917
31.6228 µM | 0.221
100 µM | 1.51

CCCOc1sc(C(=O)N2CCC(c3cc(CN)ccc3F)CC2)c(C)c1Br [AVE8923]
Settings | LDH release cytotoxicity [%]
0.002846 µM | 0.846
0.009 µM | -1.04
0.02846 µM | -1.76
0.09 µM | -1.75
0.284605 µM | -1.48
0.9 µM | -1.21
2.84605 µM | -0.426
9 µM | -0.0454

COC(=O)c1ccc(O)cc1 [Methylparaben]
Settings | LDH release cytotoxicity [%]
0.03162 µM | -1.06
0.1 µM | -1.64
0.3162278 µM | -1.84
1 µM | -0.442
3.16228 µM | -0.946
10 µM | -0.563
31.6228 µM | -0.515
100 µM | 0.108

Oc1ccc2c(c1)-c1ccccc1C2 [3-Hydroxyfluorene]
Settings | LDH release cytotoxicity [%]
0.03162 µM | -1.48
0.1 µM | -1.06
0.3162278 µM | -0.414
1 µM | -1.04
3.16228 µM | -0.932
10 µM | -0.0118
31.6228 µM | 0.438
100 µM | 3.69

c1ccc2c(c1)Nc1ccccc1S2 [Phenothiazine]
Settings | LDH release cytotoxicity [%]
0.03162 µM | -1.44
0.1 µM | -0.242
0.3162278 µM | -1.08
1 µM | -2.16
3.16228 µM | -1.87
10 µM | -1.1
31.6228 µM | 0.496
100 µM | 3.43

Cc1ccc(N)c(N)c1 [3,4-Diaminotoluene]
Settings | LDH release cytotoxicity [%]
0.0317809 µM | -0.96
0.1005 µM | -0.403
0.317809 µM | -1.27
1.005 µM | -0.97
3.17809 µM | -0.641
10.05 µM | -0.448
31.7809 µM | -0.415
100.5 µM | 0.704

[O-][Cl+]O [Sodium chlorite]
Settings | LDH release cytotoxicity [%]
0.03162 µM | 0.165
0.1 µM | 0.219
0.3162278 µM | -0.973
1 µM | -1.49
3.16228 µM | -1.49
10 µM | 0.0935
31.6228 µM | -0.775
100 µM | 1.68

O=c1[nH]cnc2c1ncn2C1CCC(CO)O1 (configuration not stated) [2',3'-Dideoxyinosine]
Settings | LDH release cytotoxicity [%]
0.03162 µM | -2.26
0.1 µM | -1.91
0.3162278 µM | -1.96
1 µM | -1.29
3.16228 µM | -1.75
10 µM | -1.3
31.6228 µM | -1.11
100 µM | -0.428

CCOc1cccc(-n2cc(C(=O)N3CCN(c4cc(C(=O)O)c5ccccc5c4)CC3)nc2-c2ccc(C)cc2)c1
Settings | LDH release cytotoxicity [%]
0.03162 µM | 1.24
0.1 µM | -0.332
0.3162278 µM | 0.167
1 µM | -0.486
3.16228 µM | -0.46
10 µM | -0.211
31.6228 µM | 9.35
100 µM | 44.3

Sc1nc2ccccc2s1 [2-Mercaptobenzothiazole]
Settings | LDH release cytotoxicity [%]
0.03162 µM | -0.515
0.1 µM | 0.0327
0.3162278 µM | -0.565
1 µM | -0.708
3.16228 µM | 0.4
10 µM | 0.658
31.6228 µM | 1.05
100 µM | 3.61

OCCOc1ccccc1 [2-Phenoxyethanol]
Settings | LDH release cytotoxicity [%]
0.03162 µM | -0.138
0.1 µM | -0.772
0.3162278 µM | -1.12
1 µM | -1.13
3.16228 µM | -1.12
10 µM | -1.27
31.6228 µM | -0.22
100 µM | 0.632

CCC(C)(C)C1CCC(O)CC1 (configuration not stated) [4-(2-Methylbutan-2-yl)cyclohexanol]
Settings | LDH release cytotoxicity [%]
0.03162 µM | -0.419
0.1 µM | -1.92
0.3162278 µM | -1.25
1 µM | -1.82
3.16228 µM | -2.17
10 µM | -1.05
31.6228 µM | -1.3
100 µM | 0.0243

CC(O)CCO (configuration not stated) [1,3-Butanediol]
Settings | LDH release cytotoxicity [%]
0.03162 µM | -2.25
0.1 µM | -2.15
0.3162278 µM | -2.36
1 µM | -2.52
3.16228 µM | -2.18
10 µM | -2.33
31.6228 µM | -1.67
100 µM | -0.781
